In the supplement of paper PMC10307832:

Experiments:
Test in all cases: relative viability (nuclei count vs DMSO), 5 days (fraction); higher = more cells survive
[1] = test system: NCI-H1755
Outline: (§1)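 Each reported value is a median over duplicate plates. It expresses relative viability: treated-well nuclei count divided by vehicle-well nuclei count. Lung cancer cell lines in 1536-well plates were dosed by pin tool a day after seeding, alone with one drug or with a fixed anchor-drug dose plus five library-drug doses (not always all listed) in √10 steps, and nuclei were counted after 5 days.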

[2] = test system: NCI-H1915
Outline: as §1

[3] = test system: NCI-H358
Outline: as §1

[4] = test system: ABC-1
Outline: as §1

[5] = test system: NCI-H1993
Outline: as §1

[6] = test system: HOP-62
Outline: as §1

[7] = test system: NCI-H2023
Outline: as §1

[8] = test system: NCI-H1975
Outline: as §1

[9] = test system: CAL-12T
Outline: as §1

[10] = test system: NCI-H1666
Outline: as §1

[11] = test system: EPLC-272H
Outline: as §1

[12] = test system: EMC-BAC-2
Outline: as §1

[13] = test system: HCC-78
Outline: as §1

[14] = test system: NCI-H2085
Outline: as §1

[15] = test system: NCI-H2126
Outline: as §1

[16] = test system: UMC-11
Outline: as §1

[17] = test system: LXF-289
Outline: as §1

[18] = test system: NCI-H3122
Outline: as §1

[19] = test system: NCI-H322M
Outline: as §1

[20] = test system: COR-L 105
Outline: as §1

[21] = test system: HCC-15
Outline: as §1

[22] = test system: NCI-H441
Outline: as §1

## C[C@@H]1CN(CC(=O)Nc2ccc3c(c2)Cc2cccc(-c4cc(=O)cc(N5CCOCC5)o4)c2S3)C[C@H](C)O1 + Cc1nc(NC(=O)N2CCC[C@H]2C(N)=O)sc1-c1ccnc(C(C)(C)C(F)(F)F)c1 [Alpelisib] (partner 2 µM)
[1]; first compound 0.04 µM
  relative viability: 0.934
[1]; first compound 0.1265 µM
  relative viability: 0.88
[1]; first compound 0.4 µM
  relative viability: 0.845
[1]; first compound 4 µM
  relative viability: 0.863
[2]; first compound 0.04 µM
  relative viability: 1.02
[2]; first compound 0.1265 µM
  relative viability: 1.08
[2]; first compound 0.4 µM
  relative viability: 1.1
[2]; first compound 4 µM
  relative viability: 1.04
[3]; first compound 0.04 µM
  relative viability: 1.12
[3]; first compound 0.1265 µM
  relative viability: 0.859
[3]; first compound 0.4 µM
  relative viability: 0.73
[3]; first compound 4 µM
  relative viability: 0.491
[4]; first compound 0.1265 µM
  relative viability: 1.05
[4]; first compound 0.4 µM
  relative viability: 0.872
[4]; first compound 4 µM
  relative viability: 0.466
[5]; first compound 0.04 µM
  relative viability: 0.641
[5]; first compound 0.1265 µM
  relative viability: 0.685
[5]; first compound 0.4 µM
  relative viability: 0.592
[5]; first compound 4 µM
  relative viability: 0.62
[6]; first compound 0.04 µM
  relative viability: 1.08
[6]; first compound 0.1265 µM
  relative viability: 1.05
[6]; first compound 0.4 µM
  relative viability: 0.939
[6]; first compound 4 µM
  relative viability: 1.07
[7]; first compound 0.04 µM
  relative viability: 0.69
[7]; first compound 0.1265 µM
  relative viability: 0.579
[7]; first compound 0.4 µM
  relative viability: 0.407
[7]; first compound 4 µM
  relative viability: 0.473
[8]; first compound 0.04 µM
  relative viability: 0.666
[8]; first compound 0.1265 µM
  relative viability: 0.587
[8]; first compound 0.4 µM
  relative viability: 0.551
[8]; first compound 4 µM
  relative viability: 0.438
[9]; first compound 0.04 µM
  relative viability: 1.33
[9]; first compound 0.1265 µM
  relative viability: 1.37
[9]; first compound 0.4 µM
  relative viability: 1.19
[9]; first compound 4 µM
  relative viability: 0.841
[10]; first compound 0.04 µM
  relative viability: 1.17
[10]; first compound 0.1265 µM
  relative viability: 1.12
[10]; first compound 0.4 µM
  relative viability: 0.964
[10]; first compound 4 µM
  relative viability: 0.654
[11]; first compound 0.04 µM
  relative viability: 0.928
[11]; first compound 0.1265 µM
  relative viability: 0.806
[11]; first compound 0.4 µM
  relative viability: 0.857
[11]; first compound 4 µM
  relative viability: 1.1
[12]; first compound 0.04 µM
  relative viability: 0.748
[12]; first compound 0.1265 µM
  relative viability: 0.771
[12]; first compound 0.4 µM
  relative viability: 0.726
[12]; first compound 4 µM
  relative viability: 0.73
[13]; first compound 0.04 µM
  relative viability: 0.303
[13]; first compound 0.1265 µM
  relative viability: 0.3
[13]; first compound 0.4 µM
  relative viability: 0.278
[13]; first compound 4 µM
  relative viability: 0.33
[14]; first compound 0.04 µM
  relative viability: 0.99
[14]; first compound 0.1265 µM
  relative viability: 0.897
[14]; first compound 0.4 µM
  relative viability: 0.793
[14]; first compound 4 µM
  relative viability: 0.7
[15]; first compound 0.04 µM
  relative viability: 0.807
[15]; first compound 0.1265 µM
  relative viability: 0.765
[15]; first compound 0.4 µM
  relative viability: 0.738
[15]; first compound 4 µM
  relative viability: 0.762
[16]; first compound 0.04 µM
  relative viability: 1.1
[16]; first compound 0.1265 µM
  relative viability: 1.02
[16]; first compound 0.4 µM
  relative viability: 1.1
[16]; first compound 4 µM
  relative viability: 0.737
[17]; first compound 0.04 µM
  relative viability: 1.04
[17]; first compound 0.1265 µM
  relative viability: 1
[17]; first compound 0.4 µM
  relative viability: 0.996
[17]; first compound 4 µM
  relative viability: 1.02
[18]; first compound 0.04 µM
  relative viability: 0.861
[18]; first compound 0.1265 µM
  relative viability: 0.682
[18]; first compound 0.4 µM
  relative viability: 0.629
[18]; first compound 4 µM
  relative viability: 0.699
[19]; first compound 0.04 µM
  relative viability: 0.844
[19]; first compound 0.1265 µM
  relative viability: 0.833
[19]; first compound 0.4 µM
  relative viability: 0.832
[19]; first compound 4 µM
  relative viability: 0.839
[20]; first compound 0.04 µM
  relative viability: 1.09
[20]; first compound 0.1265 µM
  relative viability: 0.998
[20]; first compound 0.4 µM
  relative viability: 1.04
[20]; first compound 4 µM
  relative viability: 0.896
[21]; first compound 0.04 µM
  relative viability: 0.976
[21]; first compound 0.1265 µM
  relative viability: 0.881
[21]; first compound 0.4 µM
  relative viability: 0.826
[21]; first compound 4 µM
  relative viability: 0.71
[22]; first compound 0.04 µM
  relative viability: 0.942
[22]; first compound 0.4 µM
  relative viability: 0.675
[22]; first compound 4 µM
  relative viability: 0.584
